The target in one test is T1, AXL kinase (Homo sapiens, UniProt P30530).
T1 construct: purchased Carna 08-107
T1 sequence (P30530 473-894 limits assumed): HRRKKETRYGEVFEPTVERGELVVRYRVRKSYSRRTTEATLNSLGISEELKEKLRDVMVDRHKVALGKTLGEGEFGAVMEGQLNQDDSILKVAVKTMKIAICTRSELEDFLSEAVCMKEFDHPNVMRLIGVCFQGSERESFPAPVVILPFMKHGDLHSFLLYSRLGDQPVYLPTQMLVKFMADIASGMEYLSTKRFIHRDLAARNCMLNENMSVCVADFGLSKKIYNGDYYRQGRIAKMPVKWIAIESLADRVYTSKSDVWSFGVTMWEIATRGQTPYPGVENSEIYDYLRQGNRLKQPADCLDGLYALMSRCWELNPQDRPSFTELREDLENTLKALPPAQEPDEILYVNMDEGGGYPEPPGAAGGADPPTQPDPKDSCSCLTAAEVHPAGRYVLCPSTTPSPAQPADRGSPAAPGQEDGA
The experiment in a line: Inhibitory activity of compound against AXL kinase (HTRF KinEASE). Format: biochemical. To be noted: AXL enzyme (Carna, 08-107), ATP 15 μM; "<" means below detection limit of the test. An outline of the steps:
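AXL enzyme (final 0.016 ng/uL) was preincubated with compound (8 concentrations from 1 μM, ½ log steps) for 15 min at room temperature, then reacted with TK Substrate 3-biotin (final 1) and ATP (final 15 μM) for 45 min at 25° C. Phosphorylation was read by HTRF (TK antibody-cryptate, streptavidin-XL665, 1 h); IC50 from variable-slope dose-response fit.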
(In general: In TR-FRET formats the signal depends on donor and acceptor labels being close together.)

Test [1] relates to MV-4-11 (human myeloid monocytic leukemia cell line). The experiment in a line: Proliferation inhibition activity of compounds to MV-4-11 cells (CellTiter-Glo). To be noted: MV4-11 cells, 72 h dosing. Format: cell-based. How it is done:
MV-4-11 (human myeloid monocytic leukemia cell line, culture medium: JIMDM+10% fetal bovine serum) is purchased from Cobioer Biosciences Co., Ltd and cultured in a 5% C02 incubator at 37° C. The cells in a logarithmic growth phase are plated in a 96-well plate at cell densities of 8000 cells/well, 6000 cells/well, 2000 cells/well, 2000 cells/well and 3000 cells/well, and a blank control group is set at the same time.
A compound to be tested and the positive drug are dissolved in dimethyl sulfoxide to prepare a 10 mM stock solution, which is then stored in −80° C. refrigerator for long-time storage. After the cells are plated for 24 h, the 10 mM compound stock solution is diluted with dimethyl sulfoxide to obtain a working solution having a 200-fold concentration (the highest concentration is 200 or 2000 μM, a 3-fold gradient, a total of 10 concentrations), and 3 μL of the working solution of each concentration is added to 197 μL of complete medium, and diluted into a working solution of 3-fold concentration. 50 μL of the working solution is then taken and added to a 100 μL cell culture medium (a final concentration of dimethyl sulfoxide is 0.5%, v/v), and two complex holes are set for each concentration. After 72 h of dosing treatment, 50 μl of CellTiter-Glo® (purchased from Promega) is added to each well. Fluorescence signals are measured on Envision (PerkinElmer) according to an operating procedure of the specification. GraphPad Prism 5 software log(inhibitor) vs. response-Variable slope is used to fit a dose-response curve, so as to obtain the IC50 value of the compound to the inhibition of cell-proliferation. The calculation formulation of the inhibition rate is as follows: […]
wherein: signal value of subject: a mean fluorescence signal of cell+medium+compound group; signal value of blank group: a mean fluorescence signal of medium group (containing 0.5% DMSO); signal value of negative control group: a mean fluorescence signal of cell+medium group (containing 0.5% DMSO).

Here are results for 19 molecules from US20230227484A1, “PYRIMIDINE COMPOUND AS AXL INHIBITOR” (NANJING CHIA TAI TIANQING PHARMACEUTICAL CO., LTD., priority 2020, published 2023).

By IC50 is commonly meant the point on the concentration scale where inhibition reaches its midpoint. A higher IC50 goes with weaker potency. Regarding `O=C(c1ccccc1Nc1nc(Nc2ccc3c(c2)CC[C@@H](N2CCCC2)CC3)ncc1Cl)N1CCCC1` [Example 6, (S)-(2-((5-chloro-2-((7-(pyrrolidin-1-yl)-6,7,8,9-tetrahydro-5H-benzo[7]annulen-2-yl)amino)pyrimidin-4-yl)amino)phenyl)(pyrrolidin-1-yl)methanone], the figures for the IC50 (against AXL kinase; in test [1]) were under 0.11 nM and 3.38 nM, respectively.

With `O=S(=O)(NC1CC1)c1ccccc1Nc1nc(Nc2ccc3c(c2)CC[C@@H](N2CCCC2)CC3)ncc1Cl` [Example 24, (S)-2-((5-chloro-2-((7-(pyrrolidin-1-yl)-6,7,8,9-tetrahydro-5H-benzo[7]annulen-2-yl)amino)pyrimidin-4-yl)amino)-N-cyclopropyl benzenesulfonamide], the IC50 is under 0.11 nM against AXL kinase and 6.89 nM in test [1].

On to `CNC(=O)c1ccccc1Nc1nc(Nc2ccc3c(c2)CC[C@@H](N2CCCC2)CC3)ncc1Cl` [Example 12, (S)-2-((5-chloro-2-((7-(pyrrolidin-1-yl)-6,7,8,9-tetrahydro-5H-benzo[7]annulen-2-yl)amino)pyrimidin-4-yl)amino)-N-methylbenzamide], for which the IC50 is under 0.11 nM on AXL kinase and 1.44 nM in test [1].

With `CNC(=O)c1cc(C#N)ccc1Nc1nc(Nc2ccc3c(c2)CC[C@@H](N2CCCC2)CC3)ncc1Cl` [Example 34, (S)-2-((5-chloro-2-((7-(pyrrolidin-1-yl)-6,7,8,9-tetrahydro-5H-benzo[7]annulen-2-yl)amino)pyrimidin-4-yl)amino)-5-cyano-N-methylbenzamide], the IC50 on AXL kinase came out at 1.27 nM; in test [1], 6.16 nM.

`O=C1NCc2cccc(Nc3nc(Nc4ccc5c(c4)CC[C@@H](N4CCCC4)CC5)ncc3Cl)c21` [Example 29, (S)-7-((5-chloro-2-(((7-(pyrrolidin-1-yl)-6,7,8,9-tetrahydro-5H-benzo[7]annulen-2-yl)amino))pyrimidin-4-yl)amino)isoindolin-1-one]: the IC50 came out at 0.34 nM against AXL kinase and 3.23 nM in test [1].

Turning to `CNC(=O)c1cnccc1Nc1nc(Nc2ccc3c(c2)CC[C@@H](N2CCCC2)CC3)ncc1Cl` [Example 20, (S)-4-((5-chloro-2-((7-(pyrrolidin-1-yl)-6,7,8,9-tetrahydro-5H-benzo[7]annulen-2-yl)amino)pyrimidin-4-yl)amino)-N-methylnicotinamide], the IC50 was found to be 1.93 nM against AXL kinase and 5.96 nM in test [1].

With `CP(C)(=O)c1cc(F)c(Cl)cc1Nc1nc(Nc2ccc3c(c2)CC[C@@H](N2CCCC2)CC3)ncc1Cl` [Example 118, (S)-(4-chloro-2-((5-chloro-2-((7-(pyrrolidin-1-yl)-6,7,8,9-tetrahydro-5H-benzoannulen-2-yl)amino)pyrimidin-4-yl)amino)-5-fluorophenyl)dimethyl phosphine oxide], the IC50 was 5.45 nM against AXL kinase and 30.3 nM in test [1].

For `CP(C)(=O)c1cc(O)ccc1Nc1nc(Nc2ccc3c(c2)CC[C@@H](N2CCCC2)CC3)ncc1Cl` [Example 61, (S)-(2-((5-chloro-2-((7-(pyrrolidin-1-yl)-6,7,8,9-tetrahydro-5H-benzo[7]annulen-2-yl)amino)pyrimidin-4-yl)amino)-5-hydroxyphenyl)dimethyl phosphine oxide], the results for the IC50 (against AXL kinase; in test [1]) were 2.38 nM and 7.1 nM, respectively.

In the case of `Clc1cnc(Nc2ccc3c(c2)CC[C@@H](N2CCCC2)CC3)nc1Nc1ccccc1-c1ncn[nH]1` [Example 25, (S)—N^4-(2-(1H-1,2,4-triazol-5-yl)phenyl)-5-chloro-N^2-(7-(pyrrolidin-1-yl)-6,7,8,9-tetrahydro-5H-benzo[7]annulen-2-yl)pyrimidine-2,4-diamine], the half-inhibitory concentration (IC50) was 0.62 nM against AXL kinase and 3.23 nM in test [1].

On to `CC(C)S(=O)(=O)c1ccccc1Nc1nc(Nc2ccc3c(c2)CC[C@@H](N2CCCC2)CC3)ncc1Cl` [Example 22, (S)-5-chloro-N^4-(2-(isopropylsulfo)phenyl)-N^2-(7-(pyrrolidin-1-yl)-6,7,8,9-tetrahydro-5H-benzo[7]annulen-2-yl)pyrimidine-2,4-diamine], for which the half-inhibitory concentration (IC50) at AXL kinase came to 0.11 nM; in test [1] it was 6.76 nM.

Regarding `CNC(=O)c1ccccc1Nc1nc(Nc2ccc3c(c2)CCN(C2CCOCC2)CC3)ncc1Cl` [Example 31, 2-((5-chloro-2-((3-(tetrahydro-2H-pyran-4-yl)-2,3,4,5-tetrahydro-1H-benzo[d]aza-7-yl)amino)pyrimidin-4-yl)amino)-N-methylbenzamide], the IC50 came to 0.8 nM against AXL kinase and 1.46 nM in test [1].

With `Clc1cnc(Nc2ccc3c(c2)CC[C@@H](N2CCCC2)CC3)nc1Nc1ccccc1CN1CCOCC1` [Example 40, (S)-5-chloro-N^4-(2-(morpholinmethyl)phenyl)-N^2-(7-(pyrrolidin-1-yl)-6,7,8,9-tetrahydro-5H-benzo[7]annulen-2-yl)pyrimidine-2,4-diamine], the IC50 against AXL kinase was 0.72 nM; in test [1], 4.93 nM.

In the case of `CNC(=O)c1cc(Cl)ccc1Nc1nc(Nc2ccc3c(c2)CC[C@@H](N2CCCC2)CC3)ncc1Cl` [Example 36, (S)-5-chloro-2-((5-chloro-2-((7-(pyrrolidin-1-yl)-6,7,8,9-tetrahydro-5H-benzo[7]annulen-2-yl)amino)pyrimidin-4-yl)amino)-N-methylbenzamide], the IC50 on AXL kinase amounted to 0.36 nM; in test [1] it was 5.12 nM.

Take `Cc1c(F)ccc(Nc2nc(Nc3ccc4c(c3)CC[C@@H](N3CCCC3)CC4)ncc2Cl)c1P(C)(C)=O` [Example 135, (S)-(6-((5-chloro-2-((7-(pyrrolidin-1-yl)-6,7,8,9-tetrahydro-5H-benzo[7]annulen-2-yl)amino)pyrimidin-4-yl)amino)-3-fluoro-2-methylphenyl)dimethyl phosphine oxide]: the results for the IC50 (against AXL kinase; in test [1]) were 1.35 nM and 4.23 nM, respectively.

Take `CC(C)(O)c1ccc(Nc2nc(Nc3ccc4c(c3)CC[C@@H](N3CCCC3)CC4)ncc2Cl)c(P(C)(C)=O)c1` [Example 138]: the results for the IC50 (against AXL kinase; in test [1]) were 5.29 nM and 41.3 nM, respectively.

`CNC(=O)c1cc(O)ccc1Nc1nc(Nc2ccc3c(c2)CC[C@@H](N2CCCC2)CC3)ncc1Cl` [Example 45, (S)-2-((5-chloro-2-((7-(pyrrolidin-1-yl)-6,7,8,9-tetrahydro-5H-benzo[7]annulen-2-yl)amino)pyrimidin-4-yl)amino)-5-hydroxyl-N-methylbenzamide]: the results for the IC50 (on AXL kinase; in test [1]) were 0.5 nM and 3.48 nM, respectively.

As for `CNC(=O)c1cc(OC)ccc1Nc1nc(Nc2ccc3c(c2)CC[C@@H](N2CCCC2)CC3)ncc1Cl` [Example 37, (S)-2-((5-chloro-2-(((7-(pyrrolidin-1-yl)-6,7,8,9-tetrahydro-5H-benzo[7]annulen-2-yl)amino))pyrimidin-4-yl)amino)-5-methoxyl-N-methylbenzamide], the IC50 against AXL kinase worked out at 0.18 nM; in test [1], 3.39 nM.

Turning to `CN1Cc2cccc(Nc3nc(Nc4ccc5c(c4)CCN(C4CCOCC4)CC5)ncc3Cl)c2C1=O` [Example 49, 7-((5-chloro-2-((3-(tetrahydro-2H-pyran-4-yl)-2,3,4,5-tetrahydro-1H-benzo[d]aza-7-yl)amino)pyrimidin-4-yl)amino)-2-methylisoindolin-1-one], the IC50 against AXL kinase amounted to 9.85 nM; in test [1], 8.3 nM.

In the case of `COCc1ccc(Nc2nc(Nc3ccc4c(c3)CCC(N3CC5CC3C5)CC4)ncc2Cl)c(P(C)(C)=O)c1` (single isomer, unassigned) [Example 116 Isomer 116-1, (2-((2-((7-(2-azabicyclo[2.1.1]hexan-2-yl)-6,7,8,9-tetrahydro-5H-benzo[7]annulen-2-yl)amino)-5-chloropyrimidin-4-yl)amino)-5-(methoxymethyl)phenyl)dimethyl phosphine oxide], the IC50 against AXL kinase turned out to be 4.94 nM; in test [1] it was 10.1 nM.
